Data on 19 compounds can be found in paper PMC8890542, “Discovery of novel paeonol-based derivatives against skin inflammation in vitro and in vivo” (Journal of Enzyme Inhibition and Medicinal Chemistry, 2022).

Series [1] deals with LPS-induced nitric oxide production in RAW264.7 cells. Description: LPS-induced NO production, Griess Reagent assay. It counts as cell-based, mouse. The settings on record: for Inhibitory activity on LPS-induced NO secretion, in words: 10 µM; for IC50: LPS (0.5 μg/mL) 24 h; for Inhibition rate±SD (%) against NO production / inhibition at 10 µM: compounds 10 μM, 1 h, then LPS (0.5 μg/mL) 24 h; for inhibition at 10 µM: read-out: Inhibition rate±SD (%) against NO production. The method, then: RAW264.7 cells (7 × 10^4 cells/well) were seeded into 48-well plate and used for experiments after 24 h. […] After 24 h collect cell supernatant, NO production was measured using Griess Reagent assay (Beyotime). Griess reagent were mixed at a ratio of 1:1, and reacted at room temperature for 15 min. Measurement of absorbance at […] with enzyme reader. At least three independent experiments were performed for the determination of IC50 values, which were shown as mean ± SD. All experimental data were analysed by using GraphPad Prism software, version 8.0 (GraphPad Inc.).
Background: The Griess reaction detects nitrite, a stable product of nitric oxide.

The next series relates to RAW264.7 cells. The experiment in a line: Cell viability assay (MTT), RAW264.7. It counts as cell-based, mouse. The settings on record: 24 h, read-out: Cytotoxicity IC50 with RAW264.7. As for the experimental part: (§1) RAW264.7 cells (1 × 10^4 cells/well) were seeded into 96-well plate and used for experiments after 24 h. Compounds (4 µM, 20 µM and 100 µM) treated cell for 24 h. Forty microliters of MTT solution (5 mg/mL, Sigma-Aldrich) was then added and incubated for an additional 4 h. After 4 h, cell culture supernatants were removed and DMSO (150 µL) was added into per well for dissolving the resulting crystals. Shaking about 1 0 ∼ 15 min and the absorbance at 492 nm was measured by a microplate reader (MQX200, Bio-Tek, Winooski, VT). At least three independent experiments were performed for the determination of IC50 values, which were shown as mean ± SD. All experimental data were analysed by using GraphPad Prism software, version 8.0 (GraphPad Inc.).

The test system of the next series is LO2 cells. The experiment in a line: Cell viability assay (MTT), LO2. It counts as cell-based. As to conditions: 24 h, read-out: Cytotoxicity IC50 with LO2.
The conditions of series [2]: cited from earlier work.
Series [3] in a line: Cell viability assay (MTT), RAW264.7. The format is cell-based, mouse. As to conditions: mouse, RAW264.7 cells, read-out: Cytotoxicity IC50 with RAW264.7. As for the experimental part:
as §1

Series [4] can be described thus: Cell viability assay (MTT), LO2. It counts as cell-based. As to conditions: human, LO2 cells, read-out: Cytotoxicity IC50 with LO2.
A short description of series [5]: Human liver microsomes stability assay in vitro. It counts as in vitro ADME. The method, then: The livers were homogenised initially in a Tris (0.1 M)/KCl (0.1 M)/EDTA (1 mM)/butylated sodium hydroxytoluene (BHT) (0.02 mM) buffer. Add 1.5 µL control/test compound B12 working solution to 238.5 µL liver microsome working solution, gently mix. Pre-incubate at 37 °C for 5 min. Start the reaction by adding 60 µL NADPH working solution. Mix by pipetting up and down. At each time point: 0, 5, 15, 30 and 60 min, remove 30 µL of reaction mixture to 300 µL of quenching solution. Vortex vigorously for ∼1 min and centrifuge at 4000 rpm at 4 °C for 15 min. Remove 100 µL of the supernatant and mixed with 100 µL distilled water for LC-MS/MS analysis.
Background: Microsomes from liver hold many membrane-bound enzymes, among them those of drug oxidation.

Series [6] concerns IMQ-induced psoriasis mouse model. Description: IMQ-induced psoriasis-like skin inflammation mouse model. It counts as in vivo, BALB/c mice. As to conditions: intragastric once a day, 7 days.
Source text: During treatment for 7 days, to score the severity of inflammation of mouse skin, an objective scoring system was developed based on the clinical psoriasis area and severity index. Erythema, scaling, and thickening were scored independently from 0 to 4 as follows: 0, none; 1, slight; 2, moderate; 3, marked; 4, very marked and weight loss. The cumulative score (erythema plus scaling plus thickening) served to indicate the severity of inflammation (scale 0 ∼ 12). On the 8th day, the mice were taken eyeball blood and back skin. One-half of the samples were immediately fixed in 4% paraformaldehyde and for haematoxylin and eosin (H&E) staining. The other samples were put in a −80 °C freezer. Before used, they were placed at room temperature for 30 min. After that, they were added 1 × PBS proportionally, homogenised and centrifuged. The supernatant was collected and used for ELISA assay and Western blot assay. […] The histological image was obtained using 3[sequence]’s Slide Converter (3[sequence], Hungary).

For orientation: IC50 means the concentration that inhibits the measured activity by half. The inhibition is how much of the control response was suppressed. By melting point is commonly meant the temperature of the solid-liquid transition. Broadly, the microsomal CLint is the rate of metabolic loss divided by the concentration. Low readings indicate greater metabolic stability, high ones faster metabolism.

Like-named read-outs stand apart in the source and are kept apart here.

For the compound “1–(5-acetyl-2-methoxyphenyl)-3–(2-fluorophenyl) urea [Compound B7]”, the “Inhibitory activity on LPS-induced NO secretion, in words” value in series [1] is “weak to moderate inhibitory activity”. In addition, the IC50 was > 10 µM in series [1], > 100 µM in the series with RAW264.7 cells and > 100 µM with LO2 cells. The “Inhibition rate±SD (%) against NO production” value in series [1] was determined as 15.69±4.15%.
In the case of “1–(5-acetyl-2-methoxyphenyl)-3–(4-fluorobenzyl) urea [Compound C4]”, the IC50 is > 10 µM in series [1], > 100 µM with RAW264.7 cells and > 100 µM with LO2 cells. Further, the “Inhibition rate±SD (%) against NO production” value in series [1] came out at 45.23±3.25%.
Take “1–(5-acetyl-2-methoxyphenyl)-3–(4-fluorophenyl) urea [Compound B6]”: in [1], the “Inhibitory activity on LPS-induced NO secretion, in words” value is reported as “moderate inhibitory activity”. For the same compound, the values for the IC50 (in series [1]; in the series on RAW264.7 cells; in the series on LO2 cells) were > 10 µM, > 100 µM and > 100 µM, respectively. In addition, in [1], the “Inhibition rate±SD (%) against NO production” value is recorded as 24.15±6.18%.
As to “1–(5-acetyl-2-methoxyphenyl)-3–(4-methoxyphenyl) urea [Compound B10]”, the “Inhibitory activity on LPS-induced NO secretion, in words” value in series [1] was “moderate inhibitory activity”. Moreover, the IC50 in [1] is > 10 µM; with RAW264.7 cells it was > 100 µM; in the series with LO2 cells, > 100 µM. Further, the “Inhibition rate±SD (%) against NO production” value in [1] stood at 5.03± 6.25%.
In the case of “1–(5-acetyl-2-methoxyphenyl)-3–(4-methylbenzyl) urea [Compound C3]”, the values for the IC50 (in series [1]; in the series with RAW264.7 cells; with LO2 cells) were > 10 µM, > 100 µM and > 100 µM, respectively. For the same compound, the “Inhibition rate±SD (%) against NO production” value in series [1] stood at 30.23±4.56%.
`COc1cc(O)c(C(C)=O)cc1[N+](=O)[O-]` [Compound 1]: the Anti-inflammatory activity entry in [2] (reported by Huang) is recorded as “strong anti-inflammatory activity”.
Turning to `COc1cc(O)c(C(C)=O)cc1N` [Compound 2], the Anti-inflammatory activity result in [2] (reported by Huang) is “strong anti-inflammatory activity”.
As for `COc1ccc(C(C)=O)c(Oc2ccc(NC(=O)/C=C/c3cc(OC)c(OC)c(OC)c3)cc2)c1` [Compound 3], in series [2], the Anti-inflammatory activity result is “suitable anti-inflammatory activity”.
Take `COc1cc(O)c(C(C)=O)cc1NC(=O)Nc1ccccc1C` [Compound B3, 1–(5-acetyl-4-hydroxy-2-methoxyphenyl)-3-(o-tolyl) urea]: the melting point is 238 to 239 °C. Also, the “Inhibitory activity on LPS-induced NO secretion, in words” value in series [1] was “weak to moderate inhibitory activity”. For the same compound, in series [1] (Mus musculus), the IC50 is > 10 µM and the inhibition at 10 µM worked out at 47.2 ± 6.12%. Further, the IC50 at 24 h in series [3] is > 100 µM. Moreover, the half-maximal inhibitory concentration (IC50) at 24 h in series [4] was > 100 µM.
In turn, `COc1cc(O)c(C(C)=O)cc1NC(=O)Nc1ccc(C)cc1` [Compound B4, 1–(5-acetyl-4-hydroxy-2-methoxyphenyl)-3-(p-tolyl) urea] yielded a melting point of 218 to 219 °C. In addition, the “Inhibitory activity on LPS-induced NO secretion, in words” value in [1] is on record as “moderate inhibitory activity”. In addition, in series [1] (Mus musculus), the IC50 came out at 8.76 µM and the inhibition at 10 µM was found to be 53.9 ± 4.12%. For the same compound, in series [3], the IC50 at 24 h is > 100 µM. Further, the IC50 at 24 h in [4] is > 100 µM.
Compound `COc1ccccc1NC(=O)Nc1cc(C(C)=O)c(O)cc1OC` [Compound B9, 1–(5-acetyl-4-hydroxy-2-methoxyphenyl)-3–(2-methoxyphenyl) urea] returned a melting point of 228 to 229 °C. The “Inhibitory activity on LPS-induced NO secretion, in words” value in [1] was “weak to moderate inhibitory activity”. In [1] (Mus musculus), the IC50 amounted to 6.88 µM and the inhibition at 10 µM turned out to be 56.7 ± 4.28%. The IC50 at 24 h in [3] was > 100 µM. In series [4], the IC50 at 24 h is > 100 µM.
In the case of `COc1cc(O)c(C(C)=O)cc1NC(=O)Nc1ccc(OC(F)(F)F)cc1` [Compound B13, 1–(5-acetyl-4-hydroxy-2-methoxyphenyl)-3–(4-(trifluoromethoxy)phenyl) urea], the melting point was 209 to 210 °C. Besides, in series [1] (Mus musculus), the IC50 is > 10 µM and the inhibition at 10 µM is 25.1 ± 4.18%. Besides, the IC50 at 24 h in series [3] was > 100 µM. Besides, the IC50 at 24 h in [4] is > 100 µM.
Compound `COc1cc(O)c(C(C)=O)cc1NC(=O)NCc1ccccc1` [Compound C2, 1–(5-acetyl-4-hydroxy-2-methoxyphenyl)-3-benzylurea] came in with a melting point of 194 to 195 °C. In addition, in [1] (Mus musculus), the IC50 was > 10 µM and the inhibition at 10 µM was determined as 7.86 ± 2.19%. Besides, the IC50 at 24 h in series [3] is > 100 µM. Besides, in [4], the IC50 at 24 h is > 100 µM.
In the case of `COc1ccc(CNC(=O)Nc2cc(C(C)=O)c(O)cc2OC)cc1` [Compound C5, 1–(5-acetyl-4-hydroxy-2-methoxyphenyl)-3–(4-methoxybenzyl) urea], the melting point was 233 to 234 °C. In series [1] (Mus musculus), the IC50 is > 10 µM and the inhibition at 10 µM was determined as 6.25 ± 5.16%. The IC50 at 24 h in [3] is > 100 µM. Moreover, in series [4], the IC50 at 24 h was > 100 µM.
In the case of `COc1cc(O)c(C(C)=O)cc1NC(=O)NCc1ccco1` [Compound C7, 1–(5-acetyl-4-hydroxy-2-methoxyphenyl)-3-(furan-2-ylmethyl) urea], the melting point is 231 to 232 °C. Also, in [1] (Mus musculus), the IC50 is > 10 µM and the inhibition at 10 µM came to 26.2 ± 5.13%. Also, the IC50 at 24 h in series [3] is > 100 µM. Further, the IC50 at 24 h in [4] was > 100 µM.
Consider `COc1cc(O)c(C(C)=O)cc1NC(=O)NCCc1ccc(F)cc1` [Compound D2, 1–(5-acetyl-4-hydroxy-2-methoxyphenyl)-3–(4-fluorophenethyl) urea], for which the melting point fell in the range of 224 to 225 °C. Also, in series [1] (Mus musculus), the IC50 was > 10 µM and the inhibition at 10 µM turned out to be 30.2 ± 3.98%. Further, the IC50 at 24 h in series [3] is > 100 µM. In [4], the IC50 at 24 h was > 100 µM.
For `COc1ccc(CCNC(=O)Nc2cc(C(C)=O)c(O)cc2OC)cc1` [Compound D3, 1–(5-acetyl-4-hydroxy-2-methoxyphenyl)-3–(4-methoxyphenethyl) urea], the melting point is 180 to 181 °C. Also, in [1] (Mus musculus), the IC50 is > 10 µM and the inhibition at 10 µM is 33.3 ± 3.18%. The IC50 at 24 h in series [3] was > 100 µM. Further, in series [4], the IC50 at 24 h was > 100 µM.
In series [5] (human), `COc1ccc2c(c1)[C@]13CCCC[C@@H]1[C@H](C2)N(C)CC3` [Dextromethorphan, reference compound] came in with a CLhep of 13.7 mL/min/kg. Also, in series [5] (human liver microsomes), the T1/2 turned out to be 39.5 min and the microsomal CLint amounted to 35.1 µL/min/mg.
For the compound `C[C@@H]1C[C@H]2[C@@H]3CCC4=CC(=O)C=C[C@]4(C)[C@@]3(F)[C@@H](O)C[C@]2(C)[C@@]1(O)C(=O)CO` [dexamethasone, reference compound], the “Pathological reduction, H&E of skin tissue” value in series [6] (20 mg/kg) was “high pathological reduction”. In addition, the “Experimental symptoms and PASI score” value in [6] (B12 20 and 40 mg/kg, Dex 20 mg/kg) was “significantly attenuated experimental symptoms and PASI score”.
